Measured values published in BindingDB's records for doi:10.1021/jm00079a011 (Kanebo, 1992).

Target: DNA gyrase (Escherichia coli)
Assay: The inhibitory activity was measured for the supercoiling activity of DNA gyrase isolated from Escherichia coli K-12 C600.

SMILES	IC50
O=C(O)c1c(=O)c2cc(F)c(N3CCCC3)c3c2n2c(csc12)CO3	2580 nM
CC1COc2c(N3CCNCC3)c(F)cc3c(=O)c(C(=O)O)cn1c23 (stereo unspecified)	1690 nM
NC1CCN(c2c(F)cc3c(=O)c(C(=O)O)c4scc5n4c3c2OC5)C1 (stereo unspecified)	666 nM
CN1CCN(c2c(F)cc3c(=O)c(C(=O)O)c4scc5n4c3c2OC5)CC1	727 nM
O=C(O)c1c(=O)c2cc(F)c(N3CCC(O)C3)c3c2n2c(csc12)CO3 (stereo unspecified)	929 nM
O=C(O)c1c(=O)c2cc(F)c(N3CCNCC3)c3c2n2c(csc12)CO3	452 nM
